{"source": "ChEMBL document CHEMBL3997827", "about": "“Synthesis of novel spiro[pyrazolo[4,3-d]pyrimidinones and spiro[benzo[4,5]thieno[2,3-d]pyrimidine-2,3'-indoline]-2',4(3H)-diones and their evaluation for anticancer activity” (Bioorg Med Chem Lett, 2017)", "key": {"[1]": {"system": "K562", "assay": "Cytotoxicity against human K562 cells assessed as decrease in cell viability after 24 hrs by MTT assay", "type": "functional, cell-based", "conditions": "K562, 24 h"}, "[2]": {"system": "COLO 205", "assay": "Cytotoxicity against human COLO205 cells assessed as decrease in cell viability after 24 hrs by MTT assay", "type": "functional, cell-based", "conditions": "COLO 205, 24 h"}, "[3]": {"system": "MDA-MB-231", "assay": "Cytotoxicity against human MDA-MB-231 cells assessed as decrease in cell viability after 24 hrs by MTT assay", "type": "functional, cell-based", "conditions": "MDA-MB-231, 24 h"}, "[4]": {"molecular_target": "T1, NAD-dependent protein deacetylase sirtuin-1 (Homo sapiens) (UniProt Q96EB6)", "T1 sequence (whole entry)": "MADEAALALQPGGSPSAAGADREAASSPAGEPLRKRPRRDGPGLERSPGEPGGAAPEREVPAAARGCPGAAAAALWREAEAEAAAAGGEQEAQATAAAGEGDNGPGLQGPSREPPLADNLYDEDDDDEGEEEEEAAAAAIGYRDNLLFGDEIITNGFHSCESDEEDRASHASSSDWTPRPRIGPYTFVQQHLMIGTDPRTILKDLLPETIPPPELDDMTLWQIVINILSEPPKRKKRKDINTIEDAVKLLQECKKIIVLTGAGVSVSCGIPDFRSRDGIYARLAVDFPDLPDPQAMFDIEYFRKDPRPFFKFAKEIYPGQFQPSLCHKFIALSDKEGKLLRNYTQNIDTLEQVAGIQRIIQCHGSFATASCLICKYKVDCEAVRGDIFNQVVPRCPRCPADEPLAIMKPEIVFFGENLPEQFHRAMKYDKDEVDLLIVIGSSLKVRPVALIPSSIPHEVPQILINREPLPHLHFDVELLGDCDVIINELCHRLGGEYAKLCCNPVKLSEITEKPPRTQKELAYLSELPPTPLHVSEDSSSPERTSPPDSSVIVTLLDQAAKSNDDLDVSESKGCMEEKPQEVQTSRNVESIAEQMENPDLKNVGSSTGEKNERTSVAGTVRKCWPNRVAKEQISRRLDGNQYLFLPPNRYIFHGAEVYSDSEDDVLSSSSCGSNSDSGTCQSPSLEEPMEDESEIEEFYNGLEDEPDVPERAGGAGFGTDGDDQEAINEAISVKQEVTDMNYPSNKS", "assay": "Inhibition of human Sirt1 expressed in bacteria at 10 uM using fluorophorelabeled substrate peptide after 15 mins by fluorescence assay relative to control"}}, "note": "pIC50: −log10 of the molar value."}
{"compound": "CCCc1nn(C)c2c1NC1(CCC(C)(C)CC1)NC2=O", "values": [{"measurement": "pIC50", "setting": "[1]", "result": 4.72}, {"measurement": "pIC50", "setting": "[2]", "result": 4.62}, {"measurement": "pIC50", "setting": "[3]", "result": 4.35}]}
{"compound": "CC(C)N1C(=O)C2(NC(=O)c3c(sc4c3CCCC4)N2)c2ccccc21", "note": "(centres undefined)", "values": [{"measurement": "pIC50", "setting": "[1]", "result": 4.92}, {"measurement": "pIC50", "setting": "[2]", "result": 5.22}, {"measurement": "pIC50", "setting": "[3]", "result": 4.66}, {"measurement": "inhibition", "setting": "[4]", "result": "46 to 69", "unit": "%"}]}
{"compound": "CCCCCCCCCCCCCCCCN1C(=O)C2(NC(=O)c3c(sc4c3CCCC4)N2)c2ccccc21", "note": "(centres undefined)", "values": [{"measurement": "pIC50", "setting": "[1]", "result": 4.72}, {"measurement": "pIC50", "setting": "[2]", "result": 4.74}, {"measurement": "pIC50", "setting": "[3]", "result": 4.47}, {"measurement": "inhibition", "setting": "[4]", "result": "46 to 69", "unit": "%"}]}
{"compound": "CCCc1nn(C)c2c1NC1(NC2=O)C(=O)N(C(=O)OC(C)(C)C)c2ccccc21", "note": "(centres undefined)", "values": [{"measurement": "pIC50", "setting": "[1]", "result": 4.82}, {"measurement": "pIC50", "setting": "[2]", "result": 5.00}, {"measurement": "pIC50", "setting": "[3]", "result": 4.55}, {"measurement": "inhibition", "setting": "[4]", "result": "46 to 69", "unit": "%"}]}
{"compound": "CN1C(=O)C2(NC(=O)c3c(sc4c3CCCC4)N2)c2ccccc21", "note": "(centres undefined)", "values": [{"measurement": "pIC50", "setting": "[1]", "result": 4.80}, {"measurement": "pIC50", "setting": "[2]", "result": 5.05}, {"measurement": "pIC50", "setting": "[3]", "result": 4.41}, {"measurement": "inhibition", "setting": "[4]", "result": "46 to 69", "unit": "%"}]}
{"compound": "CCCc1nn(C)c2c1NC1(CCCCC1)NC2=O", "values": [{"measurement": "pIC50", "setting": "[1]", "result": 4.80}, {"measurement": "pIC50", "setting": "[2]", "result": 4.74}, {"measurement": "pIC50", "setting": "[3]", "result": 4.46}]}
{"compound": "CCCc1nn(C)c2c1NC1(NC2=O)C(=O)N(CC)c2ccccc21", "note": "(centres undefined)", "values": [{"measurement": "pIC50", "setting": "[1]", "result": 4.66}, {"measurement": "pIC50", "setting": "[2]", "result": 4.80}, {"measurement": "pIC50", "setting": "[3]", "result": 4.39}]}
{"compound": "CCCc1nn(C)c2c1NC1(CCCC1)NC2=O", "values": [{"measurement": "pIC50", "setting": "[1]", "result": 4.85}, {"measurement": "pIC50", "setting": "[2]", "result": 4.77}, {"measurement": "pIC50", "setting": "[3]", "result": 4.47}]}
{"compound": "CCCc1nn(C)c2c1NC1(CCCCCC1)NC2=O", "values": [{"measurement": "pIC50", "setting": "[1]", "result": 4.68}, {"measurement": "pIC50", "setting": "[2]", "result": 4.59}, {"measurement": "pIC50", "setting": "[3]", "result": 4.28}]}
{"compound": "CCCc1nn(C)c2c1NC1(NC2=O)C(=O)N(C)c2ccccc21", "note": "(centres undefined)", "values": [{"measurement": "pIC50", "setting": "[1]", "result": 4.70}, {"measurement": "pIC50", "setting": "[2]", "result": 4.82}, {"measurement": "pIC50", "setting": "[3]", "result": 4.47}]}
{"compound": "CCCCCCCCCCCCN1C(=O)C2(NC(=O)c3c(sc4c3CCCC4)N2)c2ccccc21", "note": "(centres undefined)", "values": [{"measurement": "pIC50", "setting": "[1]", "result": 4.57}, {"measurement": "pIC50", "setting": "[2]", "result": 4.80}, {"measurement": "pIC50", "setting": "[3]", "result": 4.54}]}
{"compound": "CCCc1nn(C)c2c1NC1(NC2=O)C(=O)N(Cc2ccccc2)c2ccccc21", "note": "(centres undefined)", "values": [{"measurement": "pIC50", "setting": "[1]", "result": 4.80}, {"measurement": "pIC50", "setting": "[2]", "result": 4.82}, {"measurement": "pIC50", "setting": "[3]", "result": 4.42}, {"measurement": "inhibition", "setting": "[4]", "result": "46 to 69", "unit": "%"}]}
{"compound": "CCN1C(=O)C2(NC(=O)c3c(sc4c3CCCC4)N2)c2ccccc21", "note": "(centres undefined)", "values": [{"measurement": "pIC50", "setting": "[1]", "result": 4.68}, {"measurement": "pIC50", "setting": "[2]", "result": 4.92}, {"measurement": "pIC50", "setting": "[3]", "result": 4.47}]}
